Laboratory results reported in ChEMBL document CHEMBL5154658, “Discovery of quinazoline derivatives as novel small-molecule inhibitors targeting the programmed cell death-1/programmed cell death-ligand 1 (PD-1/PD-L1) interaction” (Eur J Med Chem, 2022).

Assays:
[1] = target: T1, Programmed cell death protein 1/Programmed cell death 1 ligand 1 (Homo sapiens, UniProt Q15116+Q9NZQ7); test: Inhibition of Tag2-PD-1/Tag1-PD-L1 (unknown origin) protein-protein interaction incubated for 15 mins by HTRF assay; assay type: protein-complex assay
T1 sequence (Q15116 whole entry): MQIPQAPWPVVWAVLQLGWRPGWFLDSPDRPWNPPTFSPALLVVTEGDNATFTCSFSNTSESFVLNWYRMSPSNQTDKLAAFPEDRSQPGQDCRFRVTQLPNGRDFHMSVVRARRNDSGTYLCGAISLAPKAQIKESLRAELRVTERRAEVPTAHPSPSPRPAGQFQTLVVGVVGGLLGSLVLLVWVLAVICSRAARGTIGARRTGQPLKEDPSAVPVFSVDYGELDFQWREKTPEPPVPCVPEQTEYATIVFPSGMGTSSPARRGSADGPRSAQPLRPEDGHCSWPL
T1 sequence (Q9NZQ7 whole entry): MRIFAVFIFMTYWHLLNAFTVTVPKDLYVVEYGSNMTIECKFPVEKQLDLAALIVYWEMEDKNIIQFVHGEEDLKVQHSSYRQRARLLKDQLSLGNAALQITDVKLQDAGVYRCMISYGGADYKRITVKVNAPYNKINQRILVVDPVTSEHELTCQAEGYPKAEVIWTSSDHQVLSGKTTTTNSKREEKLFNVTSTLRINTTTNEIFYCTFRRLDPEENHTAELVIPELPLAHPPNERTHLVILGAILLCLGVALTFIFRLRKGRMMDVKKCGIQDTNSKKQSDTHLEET

[2] = target: T1, Programmed cell death protein 1/Programmed cell death 1 ligand 1; test: Inhibition of PD-1/PD-L1 interaction in CHO cells expressing PD-Ll/TCR cocultured with human Jurkat cells expressing PD-1 assessed as T-cell activation by measuring maximum relative luminescence intensity value at 10 uM incubated for 6 hrs by luciferase reporter gene assay; assay type: cell-based
[3] = Cytotoxicity against human PBMC cells assessed as reduction in cell growth incubated for 72 hrs by CCK8 assay; assay type: toxicity, cell-based
[4] = target: T1, Programmed cell death protein 1/Programmed cell death 1 ligand 1; test: Inhibition of PD-1/PD-L1 interaction in human CD3+ T-cells co-cultured with Hep3B cells expressing OS8/hPD-L1 assessed as increase in IFN-gamma secretion measured after 72 hrs by ELISA; conditions: dose 0.082-2.222 µM, DDE = dose-dependent effect
[5] = target: T1, Programmed cell death protein 1/Programmed cell death 1 ligand 1; test: Inhibition of PD-1/PD-L1 interaction in human CD3+ T-cells co-cultured with Hep3B cells expressing OS8/hPD-L1 assessed as increase in IFN-gamma secretion at 2.22 uM measured after 72 hrs by ELISA; design: scale not given: the % may be the effect or the level left
[6] = Cytotoxicity against human PBMC cells assessed as reduction in cell growth at 0.003 to 2.22 uM incubated for 72 hrs by CCK8 assay; assay type: toxicity, cell-based; conditions: dose 0.003-2.22 µM
[7] = Cytotoxicity against human PBMC cells assessed as reduction in cell growth at >2.22 uM incubated for 72 hrs by CCK8 assay; assay type: toxicity, cell-based
[8] = target: T1, Programmed cell death protein 1/Programmed cell death 1 ligand 1; test: Inhibition of C-terminal-Fc-tagged human recombinant PD-1 (25 to 167 residues)/C-terminal-His-tagged recombinant human PD-L1 (19 to 238 residues) interaction incubated for 40 mins by HTRF assay; assay type: protein-complex assay
[9] = target: T1, Programmed cell death protein 1/Programmed cell death 1 ligand 1; test: Inhibition of PD-1/PD-L1 (unknown origin) interaction; assay type: protein-complex assay
[10] = target: Programmed cell death 1 ligand 1 (Homo sapiens) (UniProt Q9NZQ7); test: Binding affinity to human PD-L1 assessed as change in melting temperature at 10 uM by thermal shift based DSF assay
Programmed cell death 1 ligand 1 (Homo sapiens), sequence (Q9NZQ7 whole entry): as above

[11] = target: Programmed cell death 1 ligand 1 (Homo sapiens) (UniProt Q9NZQ7); test: Binding affinity to human PD-L1 assessed as change in melting temperature at 20 uM by thermal shift based DSF assay
[12] = target: Programmed cell death 1 ligand 1 (Homo sapiens) (UniProt Q9NZQ7); test: Binding affinity to human PD-L1 assessed as change in melting temperature at 50 uM by thermal shift based DSF assay

N#Cc1cncc(COc2cc(Oc3ncnc4c(-c5ccc6c(c5)OCCO6)cccc34)c(Cl)cc2CNC(CO)CO)c1 gave an IC50 [1] of 5.37 nM, an RLU [2] of 3370 and an IC50 at 72 h [3] of 5310 nM. For the same compound, the inhibition [4] was “Dde”, the Activity [5] was 654% and the Activity [6] was “Non-Toxic”. The Activity [7] was “Toxic”.
Compound CC(CO)(CO)NCc1cc(Cl)c(Oc2ncnc3c(-c4ccccc4)cccc23)cc1OCc1cccc(C#N)c1 has an IC50 [1] of 22.9 nM.
In the case of CC(=O)NCCNCc1cc(Cl)c(Oc2ncnc3c(-c4ccccc4)cccc23)cc1OCc1cncc(C#N)c1, the IC50 [1] is reported as 187 nM.
Compound Cc1c(-c2ccccc2)cccc1-c1nc2cc(CNCCO)ccc2o1 has an IC50 [8] of at most 10 nM.
For CC(C)(NCc1cc(Cl)c(Oc2ncnc3c(-c4ccccc4)cccc23)cc1OCc1cccc(C#N)c1)C(=O)O, the IC50 [1] was 150 nM.
Work on N#Cc1cccc(COc2cc(Oc3ncnc4c(-c5ccccc5)cccc34)c(Cl)cc2CN2CCCC[C@H]2C(=O)O)c1 yielded an IC50 [1] of over 500 nM.
For CC(=O)NCCNCc1cc(Cl)c(Oc2ncnc3c(-c4ccccc4)cccc23)cc1OCc1cccc(C#N)c1, the IC50 [1] was over 500 nM.
With N#Cc1cccc(COc2cc(Oc3ncnc4c(-c5ccccc5)cccc34)c(Cl)cc2CNCCO)c1 the IC50 [1] was 78.5 nM.
Compound N#Cc1cccc(COc2cc(Oc3ncnc4c(-c5ccccc5)cccc34)c(Cl)cc2CNC(CO)CO)c1 has an IC50 [1] of 24.2 nM.
With CC(CO)(CO)NCc1cc(Cl)c(Oc2ncnc3c(-c4ccc5c(c4)OCCO5)cccc23)cc1OCc1cccc(C#N)c1 the IC50 [1] was 18.8 nM.
For N#Cc1cncc(COc2cc(Oc3ncnc4c(-c5ccccc5)cccc34)c(Cl)cc2CNCCO)c1, the IC50 [1] was 171 nM.
Work on N#Cc1cccc(COc2cc(Oc3ncnc4c(-c5ccccc5)cccc34)c(Cl)cc2CN2CCCC[C@@H]2C(=O)O)c1 yielded an IC50 [1] of over 500 nM.
For N#Cc1cncc(COc2cc(Oc3ncnc4c(-c5ccccc5)cccc34)c(Cl)cc2CNC(CO)CO)c1, the IC50 [1] was 57.6 nM.
Work on N#Cc1cccc(COc2cc(Oc3ncnc4c(-c5ccc6c(c5)OCCO6)cccc34)c(Cl)cc2CN2CCCC[C@@H]2C(=O)O)c1 yielded an IC50 [1] of 411 nM.
CC(C)OC(=O)[C@H](CO)NCc1cc(Cl)c(OCc2cccc(-c3ccc4c(c3)OCCO4)c2Br)cc1OCc1cccnc1 gave an IC50 [9] of 10 nM.
In the case of N#Cc1cncc(COc2cc(Oc3ncnc4c(-c5ccc6c(c5)OCCO6)cccc34)c(Cl)cc2CNCCO)c1, the IC50 [1] is reported as 12.2 nM.
For CC(CO)(CO)NCc1cc(Cl)c(Oc2ncnc3c(-c4ccc5c(c4)OCCO5)cccc23)cc1OCc1cncc(C#N)c1, the IC50 [1] was 1.57 nM, the ΔTm [10] was 2.35 °C and the ΔTm [11] was 3.2 °C. It also gave a ΔTm [12] of 3.25 °C, an RLU [2] of 3120 and an IC50 at 72 h [3] of 12400 nM. For the same compound, the inhibition [4] was “Dde”, the Activity [5] was 820% and the Activity [6] was “Non-Toxic”. For the same compound, the Activity [7] was “Toxic”.
With N#Cc1cccc(COc2cc(Oc3ncnc4c(-c5ccc6c(c5)OCCO6)cccc34)c(Cl)cc2CNCCO)c1 the IC50 [1] was 22.4 nM.
With N#Cc1cccc(COc2cc(Oc3ncnc4c(-c5ccc6c(c5)OCCO6)cccc34)c(Cl)cc2CNC(CO)CO)c1 the IC50 [1] was 31.1 nM.
For CC(C)(NCc1cc(Cl)c(Oc2ncnc3c(-c4ccc5c(c4)OCCO5)cccc23)cc1OCc1cccc(C#N)c1)C(=O)O, the IC50 [1] was 88.6 nM.
CC(=O)NCCNCc1cc(Cl)c(Oc2ncnc3c(-c4ccc5c(c4)OCCO5)cccc23)cc1OCc1cccc(C#N)c1 showed an IC50 [1] of over 500 nM.
In the case of CC(CO)(CO)NCc1cc(Cl)c(Oc2ncnc3c(-c4ccccc4)cccc23)cc1OCc1cncc(C#N)c1, the IC50 [1] is reported as 32.5 nM.
Compound CC(=O)NCCNCc1cc(Cl)c(Oc2ncnc3c(-c4ccc5c(c4)OCCO5)cccc23)cc1OCc1cncc(C#N)c1 has an IC50 [1] of 96 nM.
For N#Cc1cccc(COc2cc(Oc3ncnc4c(-c5ccc6c(c5)OCCO6)cccc34)c(Cl)cc2CN2CCCC[C@H]2C(=O)O)c1, the IC50 [1] was over 500 nM.
